Laboratory results published in patent US9604945B2, “Sydnonimines-specific dopamine reuptake inhibitors and their use in treating dopamine related disorders” (priority 2007, dated 2017).

Assays:
[1] = molecular target: Norepinephrine Transporter (Human Recombinant) (Homo sapiens (Human), UniProt P23975); assay: Norepinephrine transporter (human recombinant) binding assay, [3H]-Nisoxetine; settings: read-out: INH at 10 μM NET
Experimental: II: Norepinephrine Transporter (Human Recombinant) Binding Assay • This assay was carried out in accordance with the procedure described by Raisman, R, et al. Eur. Jrnl. Pharmacol. 78: 345-351 (1982) with modifications. See also, Langer, S., et al., Eur. Jrnl. Pharmacol, 72: 423-4 (1981). Tissue Preparation • 1. hrNET (Receptor Biology; RBNET) is diluted in assay buffer to 2.5 microunits/ml, so that each tube receives 0.5 microunits, or 2 microunits/ml. • NOTE: 100 microassays, add 20 mis of buffer. Binding Reaction • 1. Each tube receives the following components: • 25 ul drug or vehicle • 25 ul [^3H]-Nisoxetine • 200 ul tissue suspension. • 2. Initiate binding reaction with the addition of tissue, and incubate at room temperature for 1 hour. • 3. Terminate binding reaction by rapid filtration of tube contents onto 0.1% PEI treated GF/C filters (TopCount). • 4. Rinse the assay tubes once with ice cold 50 mM NaCl, then rapidly rinse the filters with 6×1 ml/tube of the same wash buffer. • 5. Radioactivity trapped onto the filters is assessed using liquid scintillation spectrophotometer after soaking the filters for at least 1 hour in scintillation cocktail. Materials and Reagents • 1. The receptor source is human recombinant/CHO. • 2. [^3H]-Nisoxetine, diluted to a concentration of 10 nM in assay buffer, is used as the radioligand. Thus, the final ligand concentration is 1 nM. • 3. Non specific binding is defined as that remaining in the presence of 1×10^−6M desipramine (MW=302.8) (Make fresh: in bag with dessicating rocks 1, dissolves in water 1E-3). • 4. The reference compound for the assay is desipramine. Desimpramine is run at following final concentrations: • 1×10^−10, 2×10^−10, 5×10^−10, 1×10^−9, 2×10^−9, 5×10^−9, 1×10^−8, 2×10^−8, 5×10^−8, 1×10^−7, 2×10^−7, 5×10^−7M • 5. The positive control is any of the above run at the final concentrations of: • 1×10^−9, 5×10^−9, 2×10^−8 M. • 6. The Kd for the receptor is 3 nM. Buffers

[2] = molecular target: dopamine transporter (DAT) (Cavia porcellus, UniProt H0WCX4); assay: Dopamine transporter binding assay [3H]WIN 35,428; set-up: species or system Guinea Pig; settings: for inhibition at 10 µM: read-out: INH at 10 μM DAT
Chain of dopamine transporter (DAT) (H0WCX4 1-619): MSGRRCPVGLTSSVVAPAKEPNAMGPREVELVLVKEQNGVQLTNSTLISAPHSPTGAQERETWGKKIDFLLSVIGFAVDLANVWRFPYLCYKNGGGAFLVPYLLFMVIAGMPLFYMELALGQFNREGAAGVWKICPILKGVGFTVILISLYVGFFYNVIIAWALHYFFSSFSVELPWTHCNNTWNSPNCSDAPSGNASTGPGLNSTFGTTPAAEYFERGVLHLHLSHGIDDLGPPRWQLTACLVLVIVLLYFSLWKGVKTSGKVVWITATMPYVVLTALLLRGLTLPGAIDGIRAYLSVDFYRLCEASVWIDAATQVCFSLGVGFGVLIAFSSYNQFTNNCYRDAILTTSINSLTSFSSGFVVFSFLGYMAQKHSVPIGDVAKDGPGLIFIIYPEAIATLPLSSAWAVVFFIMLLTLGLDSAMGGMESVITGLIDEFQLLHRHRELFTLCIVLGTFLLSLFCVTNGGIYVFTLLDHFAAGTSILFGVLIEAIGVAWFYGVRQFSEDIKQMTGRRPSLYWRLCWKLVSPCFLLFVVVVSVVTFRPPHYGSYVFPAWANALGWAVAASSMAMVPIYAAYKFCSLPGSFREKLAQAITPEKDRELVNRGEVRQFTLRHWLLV
Experimental: DAT inhibition activity was tested according to the procedure described by J. Javitz et al., Mol. Pharmacol., 26: 35-44 (1984). The test results for a number of representative compounds of the invention are reported hereinbelow.
I. Dopamine Transporter Binding Assay [3H]WIN 35,428
• This assay was carried out according to the procedure described by Javitch, J. J. et al., Mol. Pharmacol. 26: 35-44; 1984
A. Tissue Preparation (Prepare all Solutions on Ice) • 1. Thaw frozen brains from male Guinea Pigs (in assay buffer) and place in 50 mM TRIS-HCl (pH 7.4 at 25° C. with 120 mM NaCl). Isolate striatum. • 2. Use a Polytron to homogenize tissue in 20 vols. (w/v) of 50 mM Tris-HCl (pH 7.4 at 25° C. with 120 mM NaCl). • 3. Centrifuge homogenate at 48,400×g for approximately 10 minutes at 4° C. Discard supernatant. • 4. Wash pellet an additional time as described in steps 2 and 3. • 5. Store pellet on ice until needed for binding assay. • 6. Using a Polytron (setting 5; approximately 10 seconds) resuspend pellet in 50 mM Tris-HCl (pH 7.4 at 25° C. with 120 mM NaCl) to an initial concentration of 10 mg/ml (original wet weight), such that the final concentration is 8 mg/ml or 4.0 mg tissue/tube.
B. Binding Reaction • 1. Each tube receives the following components: • 50 ul drug or vehicle • 50 ul [3H]-WIN 35,428 • 400 ul tissue suspension. • 2. Initiate binding reaction with the addition of tissue, and incubate for 120 minutes at 0° C. (on ice). • 3. Terminate binding reaction by rapid filtration of tube contents onto untreated Whatman GF/C filters. • 4. Rinse the assay tubes once with ice cold 50 mM TRIS HCl (pH 7.4 at 25° C. with 120 mM NaCl, BSA), then rapidly rinse the filters with 6×1 mls/tube of the same wash buffer. • 5. Radioactivity trapped onto the filters is assessed using LSM machine. Let sit for 3 hours in scint cocktail.
C. Dopamine Tranasporter Binding Assay
Materials and Reagents • 1. [3H]-WIN 35-428 is diluted to a concentration of 60 nM in 50 mM TRIS HCl (pH 7.4 at 25° C. with 120 mM NaCl). Thus, the final ligand concentration is 6 nM. • 2. Non-specific binding is defined as that remaining in the presence of 1×10^-6 M GBR12909 (room temperature cabinet). GBR12909 MW=523.5 g/mol. Will solubilize in 4% DMSO (sonicate 15 minutes). Aliquots can be used (1E-3). • 3. The reference compound for the assay is GBR12909 and is diluted in 4% DMSO and is then run at the following final concentrations: 1×10^−10, 5×10^−10, 2×10^−9, 5×10^−9, 1×10^−8, 2×10^−8, 5×10^−8, 1×10^−7, 2×10^−7, 5×10^−7, 1×10^−6, 5×10^−6. • 4. The positive control GBR12909 and is run at the final concentrations of: 2×10-8, 1×10^−7, 5×10^−7M. • 5. The Kd for the receptor is 28.0 nM. Buffers

## Cc1ccc(C[n+]2[cH-]/c(=N\C(=O)Nc3ccccc3)on2)cc1 [Example 3, N-phenylcarbamoyl-3-(p-methyl-benzyl)-sydnonimine]
[1]
  inhibition at 10 µM: 14%
[2]
  Ki: 0.19 nM
  inhibition at 10 µM: 94%

## O=C(/N=c1\[cH-][n+](CCCc2ccccc2)no1)Nc1ccccc1 [Example 6, N-phenylcarbamoyl-3-(phenylpropyl)-sydnonimine]
[1]
  inhibition at 10 µM: 1.44%
[2]
  Ki: 25 nM
  inhibition at 10 µM: 96%
